Laboratory results: patent publication US4906666A, “Hydroxamic acids and pharmaceutical compositions containing them, and anti-allergic use thereof” (Boehringer Mannheim GmbH, priority 1986, dated 1990)

How the values were obtained:
[1] = system: passively sensitized strip of pulmonary parenchyma (guinea pig); assay: Inhibition of the antigen-induced constriction on the passively sensitized strip of pulmonary parenchyma, Superfusion; format: cell-based; conditions: Cavia porcellus, concentration 20 μM
From the text: (§1) The inhibiting action of the compounds according to the invention was expressed as a percentage reduction of the constriction amplitude of the "specimens with the test substance" in proportion to the "untreated control constrictions."

[2] = system: passively sensitized strip of pulmonary parenchyma (guinea pig); assay: Inhibition of antigen-caused constriction of passively sensitized guinea pig pulmonary parenchyma strips in vitro (Organ Bath); format: cell-based, Pirbright-White guinea pigs; conditions: concentration 5 μg/ml, 20 min preincubation at 37° C., ovalbumin constriction; for inhibition at 5 µg/mL: Cavia porcellus, read-out: Inhibition (%) of the antigen-induced constriction, Organ Bath
From the text: Activity of the inventive compounds was shown by the following testing in vitro. […] For this study of the inventive compounds, a measurement was made of the inhibition of the antigen-caused constriction of passively sensitized strips of guinea pig lung parenchyma, as described herewith:
Pirbright-White guinea pigs were stunned by a blow to the neck and bled. The lungs were flushed largely free of blood in situ with Krebs' buffer, pH 7.4.
Then the lung was removed, cut into strips (approx. 20×4×4 mm) and the strips were passively sensitized for one hour at room temperature with a 1:50 dilution of a homologous anti-ovalbumin antiserum and then washed once with Krebs' buffer.
The antiserum had previously been produced as described by Davies et al, (Quantitative studies on anaphylaxis in guinea pigs passively sensitized with homologous antibody. Inter. Arch. Allergy 41, 648-654 (1971)) in guinea pigs of the same strain by the repeated injection of ovalbumin (2×crystallized) with the addition of complete Freund's adjuvant.
Until it was used, the antiserum was stored undiluted at -18° C.
Then the lung strips were suspended singly in 10-milliliter water baths with a bias weight of 1.2 g on an isometric measuring receptable.
Then the baths were filled with Krebs' buffer and continually gassed at 37°° C. with O2 (95%) and CO2 (5%).
The constrictions of the lung strips were recorded through an amplifier on a plotter.
After a 30-minute habituating phase, histamine control spasms were produced in order to establish the reactivity of the lung specimens, washed, then the test substance was preincubated for 20 minutes at 37° C., and then the ovalbumin constriction was produced.
as §1

Row | Compound | inhibition at 20 µM [1] | also measured
1 | CCCCCC(O)c1cccc(OCCCCSCCC(=O)Nc2nn[nH]n2)c1 (stereo not shown) [Example 4e, N--[(1H)-tetrazol-5-yl]-S--[4-(3-{1-hydroxyhexyl}-phenoxy)-butyl]-3-thiopropionic acid amide] | 73% | 
2 | O=C(CCSCCCOc1ccc(Cl)c(Cl)c1)Nc1nn[nH]n1 [Example 4g, N--[(1H)-tetrazol-5-yl]-S--[3-(3,4-dichlorophenoxy)-propyl]-3-thiopropionic acid amide] | 75% | 
3 | C=CCc1c(OCCCSCCc2nn[nH]n2)ccc(C(C)=O)c1O [Example 6d, 5-{S--[3-(4-acetyl-3-hydroxy-2-allylphenoxy)-propyl]-2-thioethyl}-(1H)-tetrazole] |  | inhibition at 5 µg/mL [2]: 24%
4 | CCCCCC(O)c1cccc(OCC=CCSCCC(=O)N(C)O)c1 (stereo not shown) [Example 2o, N--hydroxy-N--methyl-S--[4-(3-{1-hydroxyhexyl}-phenoxy)-but-2-enyl]-3-thiopropionic acid amide] | 42% | 
5 | CCCc1c(OCCCSCCSc2nn[nH]n2)ccc(C(C)=O)c1O [Example 7, {S-[3-(4-Acetyl-3-hydroxy-2-propylphenoxy)-propyl]-2-thioethyl}-5-mercapto-(1H)-tetrazole] | 29% | 
6 | CCCCCC(O)c1cccc(OCC(O)CSCCCC(=O)N(C)O)c1 (stereo not shown) [Example 2m, N--hydroxy-N--methyl-S--[3-(3-{1-hydroxyhexyl}-phenoxy)-2-hydroxypropyl]-4-thiobutyric acid amide] | 29% | 
7 | CCCCCC(O)c1cccc(OCC=CCSCCC(=O)Nc2nn[nH]n2)c1 (stereo not shown) [Example 4f, N--[(1H)-tetrazol-5-yl]-S--[4-(3-{1-hydroxyhexyl}-phenoxy)-but-2-enyl]-3-thiopropionic acid amide] | 26% | 
8 | CCCc1c(OCCCSCCC(=O)N(C)O)ccc(C(C)=O)c1O [Example 2i, N--hydroxy-N--methyl-S--[3-(4-acetyl-3-hydroxy-2-propyl-phenoxy)-propyl]-3-thio-propionic acid amide] | 63% | inhibition at 5 µg/mL [2]: 36%
9 | CCCCCC(O)c1cccc(OCCCSCCCC(=O)Nc2nn[nH]n2)c1 (stereo not shown) [Example 4c, N--[(1H)-tetrazol-5-yl]-S--[3-(3-{1-hydroxyhexyl}-phenoxy)-propyl]-4-thiobutyric acid amide] | 29% | 
10 | CCCc1c(OCCCCSCC(=O)N(C)O)ccc(C(C)=O)c1O [Example 2f, N--hydroxy-N--methyl-S--[4-(4-acetyl-3-hydroxy-2-propyl-phenoxy)-butyl]-thioacetamide] | 48% | 
11 | CCCc1c(OCCCSCCc2nn[nH]n2)ccc(C(C)=O)c1O [Example 6b, 5-{S--[3-(4-acetyl-3-hydroxy-2-propylphenoxy)-propyl]-2-thioethyl}-(1H)-tetrazole] | 55% | 
12 | CCCc1c(OCCCSCCC(=O)ONC2CCCCC2)ccc(C(C)=O)c1O [Example 2t, O--[S--(3-{4-acetyl-3-hydroxy-2-propylphenoxy}-propyl)-3-thiopropionyl]-cyclohexyl-hydroxylamine] | 15% | 
13 | CCCc1c(OCCCSCC(=O)N(C)O)ccc(C(C)=O)c1O [Example 1, N-Hydroxy-N-methyl-S-[3-(4-acetyl-3-hydroxy-2-propylphenoxy)-propyl]-thioacetamide] | 39% | 
14 | CCCCCC(O)c1cccc(OCCCSCCCC(=O)N(C)O)c1 (stereo not shown) [Example 2l, N--hydroxy-N--methyl-S--[3-(3-{1-hydroxyhexyl}-phenoxy)-propyl]-4-thiobutyric acid amide] | 44% | 
15 | CCCCCC(O)c1cccc(OCCCCSCCC(=O)NO)c1 (stereo not shown) [Example 9c, N--hydroxy-S--[4-(3-{1-hydroxy-hexyl}phenoxy)-butyl]-3-thiopropionic acid amide] | 27% | 
16 | CCCCCC(O)c1cccc(OCCCCSCCC(=O)N(C)O)c1 (stereo not shown) [Example 2n, N--hydroxy-N--methyl-S--[4-(3-{1-hydroxyhexyl}-phenoxy)-butyl]-3-thiopropronic acid amide] | 33% | 
17 | CCCc1c(OCCCCSCCC(=O)N(C)O)ccc(C(C)=O)c1O [Example 2c, N--hydroxy-N--methyl-S--[4-(4-acetyl-3-hydroxy-2-propyl-phenoxy)-butyl]-3-thio-propionic acid amide] | 72% | 
18 | CCCCCC(O)c1cccc(OCC(O)CSCCCC(=O)NO)c1 (stereo not shown) [Example 9b, N--hydroxy-S--[3-(3-{1-hydroxy-hexyl}-phenoxy)-2-hydroxy-propyl]-4-thiobutyric acid amide] | 21% | 
19 | CCCc1c(OCCCSCCCCCc2nn[nH]n2)ccc(C(C)=O)c1O [Example 6a, 5-{S--[3-(4-acetyl-3-hydroxy-2-propylphenoxy)-propyl]-5-thiopentyl}-(1H)-tetrazole] | 70% | 
20 | CCCCCC(O)c1cccc(OCC(O)CSCCCC(=O)Nc2nn[nH]n2)c1 (stereo not shown) [Example 4d] | 83% | 
21 | CCCCCC(O)c1cccc(OCCCSCCCC(=O)NO)c1 (stereo not shown) [Example 9a, N--hydroxy-S--[3-(3-{1-hydroxy-hexyl}-phenoxy)-propyl]-4-thiobutyric acid amide] | 11% | 
22 | CCCCCc1cccc(OCCCSCCC(=O)N(C)O)c1 [Example 2b, N--hydroxy-N--methyl-S--[3-(3-pentylphenoxy)-propyl]-3-thiopropionic acid amide] | 58% | 
23 | CCCCCc1ccccc1OCCCSCCc1nn[nH]n1 [Example 6c, 5-{S--[3-(2-pentylphenoxy)-propyl]-2-thioethyl}-(1H)-tetrazole] | 13% | 
24 | CCCc1c(OCC#CCSCCC(=O)N(C)O)ccc(C(C)=O)c1O [Example 2g, N--hydroxy-N--methyl-S--[4-(acetyl-3-hydroxy-2-propyl-phenoxy)-but-2-ynyl]-3-thiopropionic acid amide] |  | Inhibition (%) of the antigen-induced constriction, Organ Bath [2]: 67%
